Measurements from US11413261B2, “Pharmaceutical composition for treating cancer comprising lactate metal salt” (METIMEDI PHARMACEUTICALS CO., LTD, priority 2014, dated 2022).

How the values were obtained:
[1] = system: human colorectal cancer cell lines (HCT-116 and HT-29); assay: Lactate level in cancer cells (lactate assay kit); format: cell-based; conditions: 2.5 mM, medium with 3 mM or 11 mM glucose, vs untreated
Description: The cells cultured in Example 2-1 were cultured again in a medium including 3 mM (low) or 11 mM (normal) glucose. The cultured cells were disrupted by ultrasonication. The concentration of lactate included in the disrupted cells was measured using a lactate assay kit (AbCam, Cambridge, Mass.) (FIG. 3). In this case, cancer cells untreated with calcium lactate were used as control groups.

PARP = PARP protein expression in melanoma cell lines; format: cell-based, human; conditions: SKMEL-02 and SKMEL-28; with increasing concentration (0-10 mM), 12 hours
Description: Each of human melanoma cell lines (SKMEL-02 and SKMEL-28) cultured in a cancer cell culture medium (RPMI1640 medium including 10% FBS and 1% penicillin/streptomycin) at 37° C. with 5% CO2 was treated with 0 mM, 0.5 mM, 1.0 mM, 2.5 mM, 5.0 mM, or 10 mM calcium lactate for 12 hours. Then, protein expression levels of PARP expressed in the melanoma cell lines were compared (FIG. 10).

[2] = system: PDH (pyruvate dehydrogenase); assay: PDH protein expression (immunofluorescence); format: cell-based, human; conditions: HCT-116 and HT-29; 2.5 mM, 24 hours
Description: After the same method as that of Example 6-1 except that an anti-rabbit PDH antibody was used instead of the anti-rabbit LDHB antibody was performed, protein expression levels of PDH in human colorectal cancer cell lines (HCT-116 and HT-29) treated with calcium lactate were measured (FIG. 13).

[3] = system: human vascular endothelial cell (HUVEC); assay: Tube formation of HUVEC in culture supernatants of treated cancer cell lines; format: cell-based
Description: A human vascular endothelial cell (HUVEC) was inoculated into each of the obtained culture supernatant and cultured to analyze a conformational change of cells (FIG. 17). In this case, an HUVEC cultured using the culture medium of a cancer cell line cultured without treating with calcium lactate was used as a control group, and an HUVEC cultured with the treatment with Sulforaphane, which is a growth inhibitor of an HUVEC, was used as a comparison group.

[4] = system: colorectal cancer cell line HCT-116; assay: Cell migration of colorectal cancer cell line (culture insert); format: cell-based; conditions: 2.5 mM, 24 hours, then 12 hours after insert removal
Description: (§1) A colorectal cancer cell line HCT-116 with the cell number of 4×10^5 cells was inoculated into a culture container at the center of which an ibidi culture insert having a thickness of 500 μm was placed, and treated with 2.5 mM calcium lactate and then cultured for 24 hours. Then, the insert was removed and further cultured for 12 hours to analyze migration of the cancer cells to a site where the insert was removed using a JuLi Br, Live cell analyzer (NanoEnTek Inc., South Korea) (FIG. 18). In this case, a colorectal cancer cell line cultured without treating with calcium lactate was used as a control group.

[5] = system: breast cancer cell lines (MCF-7 and MDA-MB231); assay: Cell migration of breast cancer cell lines; format: cell-based; conditions: 2.5 mM, vs untreated
Description: as §1
Using the same method as Example 8-1, with breast cancer cell lines (MCF-7 and MDA-MB231) instead of the colorectal cancer cell line, an effect of calcium lactate on migration of the breast cancer cell lines was examined (FIG. 19).

MCF-7 cell line = assay: Cell apoptosis rate by flow cytometry (FITC Annexin V / PI); format: cell-based; conditions: 2.5 mM, 24 hours (untreated 9.63%)
Description: (§2) Breast cancer cell lines (MCF-7 and MDA-MB231) were cultured for 24 hours with or without treating with 2.5 mM calcium lactate. Each of the breast cancer cell lines were treated with 5 μl of FITC Annexin V and 5 μl of PI and reacted at room temperature for 15 minutes and then, a flow cytometry analysis was conducted thereto using a FACS Calibur (BD Bioscience, USA) to evaluate staining thereof and thus measure a cancer cell apoptosis rate (FIG. 21a-21f).

MDA-MB231 cell line = assay: as above; format: cell-based; conditions: 2.5 mM, 24 hours (untreated 10.17%)
Description: as §2

[6] = system: colorectal cancer cell (HT-29); assay: Tumor volume and morphology in HT-29 implanted animal model; format: in vivo, Balb/c mice
Description: (§3) A colorectal cancer cell (HT-29) cultured in an RPMI1640 medium and then diluted with PBS was subcutaneously implanted into the flank of Balb/c mice. The mice were bred until the colorectal cancer cell grew to about 5 mm. Then, four groups were set up; a control group untreated with calcium lactate for 30 days, an experimental group 1 (peroral, P.O.) administered with 2.5 mM calcium lactate by oral administration, an experimental group 2 (intra tumor, I.T) injected with 2.5 mM calcium lactate around tumor, and an experimental group 3 (subcutaneous, S.C) subcutaneously injected with 25 mM calcium lactate (FIG. 27).
The volumes of colorectal cancer tissues extracted from the mice of the control group or the experimental group 1 set up in Example 10-1 were measured over time and compared with each other (FIG. 30).
The volumes of colorectal cancer tissues extracted from the mice of the control group or the experimental group 2 set up in Example 10-1 were measured over time and compared with each other (FIG. 32).
The tumor morphologies of the mice of the control group or the experimental group 2 set up in Example 10-1 were compared with each other (FIG. 33).
The volumes of colorectal cancer tissues extracted from the mice of the control group or the experimental group 3 set up in Example 10-1 were measured over time and compared with each other (FIG. 34).
The tumor morphologies of the mice of the control group or the experimental group 3 set up in Example 10-1 were compared with each other (FIG. 35).

HIF-1α = HIF-1α expression in tumor tissues of animal model; format: in vivo, Balb/c mice; conditions: HT-29 tumor tissue
Description: as §3
(§4) Colorectal cancer tissues were extracted from the mice of the control group or the experimental group 1 set up in Example 10-1, and expression levels of HIF-1α and VEGF involved in metastasis, invasion, and angiogenesis of tumor expressed therein were compared (FIG. 29). In this case, GAPDH was used as internal control groups.
as §4, with “group 2” for “group 1”, “tumor” for “tumor expressed”, “(FIG. 31).” for “(FIG. 29).”

VEGF = VEGF expression in tumor tissues of animal model; format: in vivo, Balb/c mice; conditions: HT-29 tumor tissue
Description: as §3, §4
as §4, with “group 2” for “group 1”, “tumor” for “tumor expressed”, “(FIG. 31).” for “(FIG. 29).”

[7] = experimental group 1, 2.5 mM oral administration
[8] = experimental group 2, 2.5 mM injected around tumor

CC(O)C(=O)[O-].CC(O)C(=O)[O-].[Ca+2] (stereo not shown) [calcium lactate]
concentration of lactate in cancer cells [1]: increased
protein expression levels of PARP (PARP): decreased
protein expression levels of PDH [2]: sharply increased
tube-forming ability of HUVEC ([3]; culture supernatant of cancer cell line treated with 2.5 mM): reduced tube-forming ability similar to the comparison group treated with Sulforaphane
tube-forming ability of HUVEC ([3]; culture supernatants of cancer cell lines treated with 0.5, 1, 1.5, 2.5 mM for 24 hours, vs control): reduced tube-forming ability
cell migration [4]: decreased
cell migration (metastatic capacity) [5]: relatively low levels of metastasis
cell apoptosis rate (MCF-7 cell line): 33.8%
cell apoptosis rate (MDA-MB231 cell line): 13.05%
tumor morphology ([6]; 2.5 mM injected around tumor): decreased in size with decreased angiogenesis
tumor morphology ([6]; 25 mM subcutaneously injected): greatly decreased in size and angiogenesis is also reduced
final tumor volume ([6]; 25 mM subcutaneously injected, 30 days (control about 2300)): about 80 mm^3
expression of HIF-1α (HIF-1α; [7]): inhibited
expression of HIF-1α (HIF-1α; [8]): inhibited
expression of VEGF (VEGF; [7]): inhibited
expression of VEGF (VEGF; [8]): inhibited
